Laboratory results taken from patent publication US9586896B2, “Nitroxyl donors with improved therapeutic index” (Cardioxyl Pharmaceuticals, Inc., priority 2013, dated 2017).

Assays:
beagle dogs = experiment: 24-hour continuous infusion, canine peripheral (cephalic) vein model, clinical pathology; type: in vivo; settings: for NOAEL (μg/kg/min), clinical pathology markers: 24 hour i.v. infusion, CAPTISOL 7% w/v pH 4, WBC, fibrinogen, CRP, molar equivalent dose rates to CXL-1020
Protocol: After 24 hours of infusion, clinical pathology changes similar to those observed in previous studies using an implanted central catheter were detected.
Studies were conducted in male and female beagle dogs. Animals were allowed free access to drinking water and a commercial canine diet under standard laboratory conditions. Animals were fasted prior to blood sample collections when indicated by the study protocol. Fluorescent lighting was provided via an automatic timer for approximately 12 hours per day. On occasion, the dark cycle was interrupted intermittently due to study-related activities. Temperature and humidity were monitored and recorded daily and maintained to the maximum extent possible between 64° F. to 84° F. and 30% to 70%, respectively. The dogs were acclimated for a period of at least 1 week. During this period, the animals were weighed weekly and observed with respect to general health and any signs of disease. The animals were acclimated to wearing a jacket for at least three days prior to dose administration. Additionally, the animals were also acclimated to wearing an Elizabethan collar (e-collar) during the jacket acclimation.
Animals were catheterized the day prior to dose administration. A percutaneous catheter was placed (using aseptic technique and sterile bandaging) in the cephalic vein distal to the elbow. The animals were free-moving in their cages during continuous infusion dose administration. To facilitate continuous infusion dose administration, the peripheral catheter was attached to an extension set routed underneath a canine jacket and then attached to a tether infusion system. To prevent the animals from accessing/removing the peripherally placed percutaneous catheter, the catheterization site was bandaged using Vet Wrap and an e-collar was placed on the animals for the duration of the treatment (i.e., the catheterized period). During the pretreatment period, the venous catheter was infused continuously at a rate of approximately 2-4 mL/hr with 0.9% sodium chloride for injection, USP (saline) to maintain catheter patency. Prior to dosing, the infusion system was pre-filled (slow bolus infusion) with the respective dosing solution to ensure that dosing began as soon as the infusion pump was started. The infusion line was connected to a reservoir containing the control or test compound and the infusion was started. Test compositions were infused continuously, at a predetermined constant infusion rate (1 or 2 mL/kg/hr), for 24 hours and were compared at molar equivalent dose rates.
A detailed clinical examination of each animal was performed twice daily and body temperature measurements and blood samples for clinical pathology were collected from all animals pre-dose and 6 hours, 12 hours, 24 hours and 72 hours post start of composition infusion. At the termination of the study, all animals were euthanized at their scheduled necropsy and complete necropsy examinations were performed. Selected tissues were collected, fixed and stored for potential future microscopic examination. The cephalic vein containing the infusion catheter was dissected intact along with the brachial vein and examined along its entire length. The location of the catheter tip was marked on the unfixed specimen. […]

[1] = In vitro stability (half-life) in human plasma; type: in vitro ADME; settings: male, pH 7.4, human plasma pH 7.4, anticoagulant, 37° C., read-out: T1/2 (minutes) Human
Protocol: Compound (1), compound (2), and CXL-1020 were tested for their stability in plasma. The assay system comprised (i) PBS, or plasma from rat, dog or human (at least 3 donors, male, pooled) at pH 7.4, and (ii) for tests conducted in plasma, an anticoagulant (sodium heparin or sodium citrate). Each test compound (5 μM) was incubated in PBS or plasma at 37° C. on a THERMOMIXER® with shaking Three samples (n=3) were taken at each of seven sampling time points: 0, 10, 30, 60, 90, 180 and 360 minutes. The samples were immediately combined with 3 volumes (i.e., 3 times the volume of PBS or plasma) of acetonitrile containing 1% formic acid and an internal standard to terminate the reaction. AB SCIEX API 3000 LC-MS/MS analysis of the test compounds was performed without a standard curve. Half-lives (T1/2) of the test compounds were determined from graphs of the percent remaining values using the peak area response ratio.

dogs = experiment: Microscopic pathology of the vasculature, canine implanted central catheter 72 hour model; type: in vivo, beagle dogs; settings: edema, vascular/perivascular inflammation, hemorrhage, molar equivalent dose rates to CXL-1020
Protocol: Confirmation was obtained through evaluating the nitroxyl donors through detailed histopathology of the vasculature at the site of insertion of into the femoral vein (15 cm distal to the catheter tip), along the catheter track to the catheter tip, and past the tip downstream 20 cm.
A composite lab score was calculated from the sum of these findings scores. In FIG. 5, the cumulative histology composite lab score ranges from 0-2 (low severity) to 11-12 (high severity). […] The NOAEL values determined based on these microscopic pathology markers for a series of nitroxyl donors, expressed in molar equivalent dose rates (μg/kg/min) to CXL-1020, are provided in Table 8.

[2] = dogs, percutaneous catheter in cephalic vein

Compound	NOAEL (μg/kg/min), clinical pathology markers (beagle dogs; dogs) [μg/kg/min]	half-life at 5 μM [1] [min]	NOAEL (μg/kg/min), microscopic pathology markers (dogs)	finding after 6 hours of infusion (beagle dogs; [2])	microscopic pathology after 24 hours of infusion (beagle dogs; [2])	improvement in NOAEL relative to CXL-1020 (beagle dogs; clinical pathology markers) [fold]
CS(=O)(=O)c1cccc(S(=O)(=O)NO)c1 [(2), N-Hydroxy-3-methanesulfonylbenzene-1-sulfonamide]	3	~37	≧180 μg/kg/min	–	–	–
CS(=O)(=O)c1ccccc1S(=O)(=O)NO [CXL-1020, N-hydroxy-2-methanesulfonylbenzene-1-sulfonamide]	<0.03	2	<3 μg/kg/min	significant edema was observed in the upper forelimb	severe thrombophlebitis at the catheter tip	–
Cc1ccc(S(=O)(=O)NO)o1 [Compound (1), N-Hydroxy-5-methylfuran-2-sulfonamide]	–	~65	≧180 μg/kg/min	–	–	> 660
